The test relates to human ovarian carcinoma, Burkitt’s lymphoma, pancreatic carcinoma and T-cell leukemia cells. The test can be described thus: Anticancer activity, summary over four cancer cell lines. The class given is cell-based. To be noted: read-out: IC50 values, range over cell lines. The method, then: Determination of viability of cells in the presence of prodrugs and controls A2780 and BL-2 cells The medium was removed, and the cells were washed two times with DPBS, trypsinated, and resuspended in RPMI 1640 medium (A2780) supplemented with 5% FBS (for 24 h and 48 h assay) or 10% FBS (for 96 h assay) , 1% L-glutamine, and 1% penicillin/streptomycin.
A2780 cells: This suspension was spread in the wells of a 96 -well microtiter plate (25000 cells for A2780 per well per 100 μL) and left standing at 37 °C in the chamber filled with CO2 (5%) for overnight. […] Afterward, the intensity of the absorbance at 590 nm was measured.
MTT is converted in live cells to blue dye with the absorbance maximum λ max at 590 nm.
The absorbance at 690 nm was taken as a baseline value. The baseline corrected absorbance at 590 nm (A(590 nm) − A(690 nm)) was applied to calculate the relative number of viable cells. […]
AsPC1 cells The cells (20.000/well) were seeded in a 12-well plate and incubated for 24 h. […] Viable cells were determined based on the morphological parameters by using flow cytometry (Table S4). […]
Jurkat cells The cells were counted in MUSE Cell Analyzer using MUSE® Count &Viability Assay Kit (Merck-Millipore, Billerica, MA, USA) and adjusted to a density of 1.0 x 10^5/ml in RPMI 1640 medium (with 10% FCS and 1% glutamine). […]

For orientation: IC50 means the concentration that gives 50% inhibition. As for `CC1(C)OB(c2ccc(COC(=O)N(Cc3cn(Cc4ccc(Cn5cc(Cc6ccccc6)nn5)cc4)nn3)[c-]3cccc3)cc2)OC1(C)C.[Fe+2].c1cc[cH-]c1` [2c], the IC50 was in the range of 5 to 7.1 µM.

Values taken from paper PMC8750417, “Intracellular Amplifiers of Reactive Oxygen Species Affecting Mitochondria as Radiosensitizers” (Cancers, 2021).
